Data as given in patent publication US20240131007A1, “METHODS AND COMPOSITIONS FOR PICORNAVIRUS ANTI-VIRAL AGENTS” (University of Connecticut, priority 2022, published 2024).
Read-outs that look alike come from different tables or passages of the source.

What was measured:
in vitro = conditions: African green monkey; for CC50 at 3 days: CC50 (μM)
EV-A71 Δ2C^116-329 = biological target: T1, EV-A71 Δ2C^116-329 (Human enterovirus 71, UniProt Q66478); test: biochemical; assay type: biochemical
T1 construct: EV-A71 Δ2C (amino acids 116-329) was designed with; made in house; host or cells: E. coli Rosetta 2(DE3) pLysS, pMALc5x vector

EV-A71 = test: CPE inhibition assay (Cell Titer Glo) against EV-A71 in Vero cells; assay type: cell-based, Enterovirus A71; conditions: for IC50: Enterovirus A, EVA71, EV-A71, Vero cells, read-out: IC50
[1] = Table 10, Scaffold 1, CC50/IC50
[2] = Table 11, Scaffold 2, CC50/IC50
[3] = Table 12, Scaffold 3, CC50/IC50
[4] = Table 13, Scaffold 4, CC50/IC50

T1 sequence (Q66478 1227-1440, stated change not applied): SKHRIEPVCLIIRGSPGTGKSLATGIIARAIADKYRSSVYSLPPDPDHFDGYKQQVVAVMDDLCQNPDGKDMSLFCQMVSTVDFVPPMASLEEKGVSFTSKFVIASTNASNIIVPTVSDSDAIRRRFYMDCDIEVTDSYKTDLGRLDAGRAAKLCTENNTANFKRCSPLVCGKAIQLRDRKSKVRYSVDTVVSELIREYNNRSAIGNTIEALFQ

For Cc1cccc(C(=O)Nc2ccc(-c3nc4ccccc4[nH]3)cc2)c1 [Compound 12, N-[4-(1H-benzimidazol-2-yl)phenyl]-3-methylbenzamide], which CC50 at 3 days (in vitro) is on record?
The CC50 at 3 days was 432 µM.

And the IC50 (EV-A71 Δ2C^116-329)?
The IC50 was 652 µM.

What about the IC50 (EV-A71; Table 10, Scaffold 1) of the same molecule?
Its IC50 is 13.2 µM.

What about the “Selectivity Index” value (EV-A71; [1]) of the same molecule?
Its value is 32.71.

With O=C(Nc1ccc(-c2nc3ccccc3[nH]2)cc1)c1ccc(C(=O)Nc2ccc(-c3nc4ccccc4[nH]3)cc2)cc1 [Compound 28, N,N′-bis[4-(1H-benzimidazol-2-yl)phenyl]terephthalamide] as the molecule, how does the CC50 at 3 days (in vitro) read?
Its CC50 at 3 days is greater than 400 µM.

What about the IC50 (EV-A71 Δ2C^116-329) of the same molecule?
The IC50 was 0.55 µM.

And the IC50 (EV-A71; Table 10, Scaffold 1)?
The IC50 was 41.7 µM.

What about the “Selectivity Index” value (EV-A71; [1]) of the same molecule?
Its value is greater than 9.6.

For COc1ccc(C(=O)Nc2ccc(-c3nc4cc(C)ccc4[nH]3)cc2)cc1OC [Compound 37, 3,4-dimethoxy-N-[4-(5-methyl-1H-benzimidazol-2-yl)phenyl]benzamide], which CC50 at 3 days (in vitro) is on record?
Its CC50 at 3 days is greater than 400 µM.

And the IC50 (EV-A71 Δ2C^116-329)?
The IC50 was 20.6 µM.

And the IC50 (EV-A71; Table 10, Scaffold 1)?
Its IC50 is 69.1 µM.

What about the “Selectivity Index” value (EV-A71; [1]) of the same molecule?
The value was greater than 5.79.

For Cc1ccc2[nH]c(-c3ccc(NC(=O)Cc4ccccc4)cc3)nc2c1 [Compound 39, N-[4-(5-methyl-1H-benzimidazol-2-yl)phenyl]-2-phenylacetamide], which CC50 at 3 days (in vitro) is on record?
The CC50 at 3 days was greater than 400 µM.

What about the IC50 (EV-A71; Table 10, Scaffold 1) of the same molecule?
The IC50 was greater than 25 µM.

For Cc1ccc2[nH]c(-c3ccc(NC(=O)c4ccc(Br)o4)cc3)nc2c1 [Compound 40, 5-bromo-N-[4-(5-methyl-1H-benzimidazol-2-yl)phenyl]-2-furamide], which CC50 at 3 days (in vitro) is on record?
Its CC50 at 3 days is greater than 400 µM.

What about the IC50 (EV-A71 Δ2C^116-329) of the same molecule?
The IC50 was 37.3 µM.

What about the IC50 (EV-A71; Table 10, Scaffold 1) of the same molecule?
The IC50 was 81.9 µM.

What about the “Selectivity Index” value (EV-A71; [1]) of the same molecule?
The value was greater than 4.89.

Which CC50 at 3 days (in vitro) does the source give for Cc1ccc(OCC(=O)Nc2ccc(-c3nc4cc(C)ccc4[nH]3)cc2)cc1 [Compound 41, N-[4-(5-methyl-1H-benzimidazol-2-yl)phenyl]-2-(4-methylphenoxy)acetamide] here?
The CC50 at 3 days was greater than 400 µM.

And the IC50 (EV-A71; Table 10, Scaffold 1)?
Its IC50 is greater than 25 µM.

With Cc1ccc2[nH]c(-c3ccc(NC(=O)c4ccc(C)c(C)c4)cc3)nc2c1 [Compound 43, 3,4-dimethyl-N-[4-(5-methyl-1H-benzimidazol-2-yl)phenyl]benzamide] as the molecule, how does the CC50 at 3 days (in vitro) read?
Its CC50 at 3 days is 170 µM.

And the IC50 (EV-A71 Δ2C^116-329)?
The IC50 was 55 µM.

And the IC50 (EV-A71; Table 8, virus-induced CPE)?
Its IC50 is 4.27 µM.

What about the “Selectivity Index” value (EV-A71; Table 8, CC50/IC50) of the same molecule?
Its value is 39.86.

What about the “Selectivity Index” value (EV-A71; [1]) of the same molecule?
The value was 39.86.

Which results are given for Cc1ccc2[nH]c(-c3ccc(NC(=O)c4cccc(Br)c4)cc3)nc2c1 [Compound 44, 3-bromo-N-[4-(5-methyl-1H-benzimidazol-2-yl)phenyl]benzamide]?
CC50 at 3 days (in vitro): 475 µM; IC50 (EV-A71 Δ2C^116-329): 19 µM; IC50 (EV-A71; Table 10, Scaffold 1): 10.5 µM; Selectivity Index (EV-A71; [1]): 45.23

Which results are given for O=C(c1ccccc1)c1ccc2[nH]c(-c3ccc(NC(=O)c4ccco4)cc3)nc2c1 [Compound 45, N-[4-(5-benzoyl-1H-benzimidazol-2-yl)phenyl]-2-furamide]?
CC50 at 3 days (in vitro): 59.1 µM; IC50 (EV-A71; Table 8, virus-induced CPE): 4.71 µM; Selectivity Index (EV-A71; Table 8, CC50/IC50): 12.56; Selectivity Index (EV-A71; [1]): 12.56

Which CC50 at 3 days (in vitro) does the source give for CC(=O)Nc1ccc(-c2nc3cc4ccccc4cc3[nH]2)cc1 [Compound 47, N-[4-(1H-naphtho[2,3-d]imidazol-2-yl)phenyl]acetamide] here?
The CC50 at 3 days was 477 µM.

What about the IC50 (EV-A71; Table 8, virus-induced CPE) of the same molecule?
Its IC50 is 4.22 µM.

What about the “Selectivity Index” value (EV-A71; Table 8, CC50/IC50) of the same molecule?
Its value is 113.08.

What about the “Selectivity Index” value (EV-A71; [2]) of the same molecule?
The value was 113.08.

What does the source list for O=C(CCc1ccccc1)Nc1ccc(-c2nc3cc4ccccc4cc3[nH]2)cc1 [Compound 49, N-[4-(1H-naphtho[2,3-d]imidazol-2-yl)phenyl]-3-phenylpropanamide]?
CC50 at 3 days (in vitro): 154 µM; IC50 (EV-A71; Table 11, Scaffold 2): 22.1 µM; Selectivity Index (EV-A71; [2]): 6.99

With O=C(Nc1cccc(-c2nc3cc4ccccc4cc3[nH]2)c1)c1ccco1 [Compound 50, N-[3-(1H-naphtho[2,3-d]imidazol-2-yl)phenyl]-2-furamide] as the molecule, how does the CC50 at 3 days (in vitro) read?
The CC50 at 3 days was 562 µM.

And the IC50 (EV-A71; Table 11, Scaffold 2)?
The IC50 was greater than 25 µM.

Which CC50 (in vitro) does the source give for O=C(Nc1ccc2[nH]c(-c3ccccc3)nc2c1)c1ccccc1 [Compound 53, N-(2-phenyl-1H-benzimidazol-5-yl)benzamide] here?
The CC50 was 125 µM.

What about the “Selectivity Index” value (EV-A71) of the same molecule?
The value was 9.43.

And the IC50 (EV-A71; Table 12, Scaffold 3)?
The IC50 was 13.2 µM.

Which CC50 at 3 days (in vitro) does the source give for Cn1cccc1-c1nc2cc(NC(=O)c3ccccc3)ccc2[nH]1 [Compound 54, N-[2-(1-methyl-1H-pyrrol-2-yl)-1H-benzimidazol-5-yl]benzamide] here?
The CC50 at 3 days was 33.1 µM.

What about the IC50 (EV-A71; Table 12, Scaffold 3) of the same molecule?
The IC50 was 47.6 µM.

What about the “Selectivity Index” value (EV-A71; [3]) of the same molecule?
The value was 0.69.

With Cn1cccc1-c1nc2cc(NC(=O)c3cccs3)ccc2[nH]1 [Compound 58, N-[2-(1-methyl-1H-pyrrol-2-yl)-1H-benzimidazol-5-yl]-2-thiophenecarboxamide] as the molecule, how does the CC50 at 3 days (in vitro) read?
The CC50 at 3 days was 62.8 µM.

What about the IC50 (EV-A71; Table 12, Scaffold 3) of the same molecule?
Its IC50 is 23.7 µM.

What about the “Selectivity Index” value (EV-A71; [3]) of the same molecule?
The value was 2.66.

Which results are given for Cc1ccc2[nH]c(-c3ccc(N)cc3)nc2c1 [Compound 59, 4-(5-methyl-1H-benzimidazol-2-yl)aniline]?
CC50 at 3 days (in vitro): 189 µM; IC50 (EV-A71; Table 13, Scaffold 4): > 25 µM

What does the source list for Cc1ccc(-c2nc3ccccc3[nH]2)cc1NC(=O)c1ccco1 [Compound 60, N-[5-(1H-benzimidazol-2-yl)-2-methylphenyl]-2-furamide]?
CC50 at 3 days (in vitro): > 400 µM; IC50 (EV-A71; Table 13, Scaffold 4): > 25 µM

Which results are given for Nc1ccc(-c2nc3ccc(Cl)cc3[nH]2)cc1 [Compound 61, 4-(6-chloro-1H-benzimidazol-2-yl)aniline]?
CC50 at 3 days (in vitro): 126 µM; IC50 (EV-A71; Table 13, Scaffold 4): 51.3 µM; Selectivity Index (EV-A71; [4]): 2.46

With O=C(Nc1cccc(-c2nc3ccccc3[nH]2)c1)c1ccco1 [Compound 62, N-[3-(1H-benzimidazol-2-yl)phenyl]-2-furamide] as the molecule, how does the CC50 at 3 days (in vitro) read?
Its CC50 at 3 days is 81.5 µM.

And the IC50 (EV-A71; Table 13, Scaffold 4)?
The IC50 was 50.2 µM.

And the “Selectivity Index” value (EV-A71; [4])?
Its value is 1.62.

For Cc1ccc2[nH]c(-c3cccc(NC(=O)c4ccc(Br)o4)c3)nc2c1 [Compound 64, 5-bromo-N-[3-(5-methyl-1H-benzimidazol-2-yl)phenyl]-2-furamide], which CC50 at 3 days (in vitro) is on record?
Its CC50 at 3 days is 43.8 µM.

And the IC50 (EV-A71; Table 13, Scaffold 4)?
The IC50 was 71.4 µM.

What about the “Selectivity Index” value (EV-A71; [4]) of the same molecule?
Its value is 0.61.

Which results are given for c1ccc2[nH]c(-c3ccc(-c4nc5ccccc5[nH]4)cc3)nc2c1 [Compound 65, 2,2′-(1,4-phenylene)bis-1H-benzimidazole]?
CC50 at 3 days (in vitro): 379 µM; IC50 (EV-A71; Table 8, virus-induced CPE): 2.17 µM; Selectivity Index (EV-A71; Table 8, CC50/IC50): 174.52; Selectivity Index (EV-A71; [4]): 174.52

Which results are given for Cc1ccc(-c2nc3ccccc3[nH]2)cc1NC(=O)c1cc2ccccc2o1 [Compound 66, N-[5-(1H-benzimidazol-2-yl)-2-methylphenyl]-1-benzofuran-2-carboxamide]?
CC50 at 3 days (in vitro): 94.7 µM; IC50 (EV-A71; Table 13, Scaffold 4): 8.52 µM; Selectivity Index (EV-A71; [4]): 11.11

For O=C(Nc1cccc(-c2nc3ccccc3[nH]2)c1)c1cc2ccccc2o1 [Compound 67, N-[3-(1H-benzimidazol-2-yl)phenyl]-1-benzofuran-2-carboxamide], which CC50 at 3 days (in vitro) is on record?
Its CC50 at 3 days is 43 µM.

What about the IC50 (EV-A71; Table 13, Scaffold 4) of the same molecule?
The IC50 was 14.9 µM.

And the “Selectivity Index” value (EV-A71; [4])?
Its value is 2.89.

With COc1ccccc1OCC(=O)Nc1ccc(-c2nc3cc(C)ccc3[nH]2)cc1 [Compound T1, 2-(2-methoxyphenoxy)-N-[4-(5-methyl-1H-benzimidazol-2-yl)phenyl]acetamide] as the molecule, how does the CC50 at 3 days (in vitro) read?
The CC50 at 3 days was 306 µM.

What about the IC50 (EV-A71; Table 6) of the same molecule?
The IC50 was 5 µM.

What about the “Selectivity Index” value (EV-A71; Table 6, CC50/IC50) of the same molecule?
The value was 61.24.

Which CC50 at 3 days (in vitro) does the source give for COc1cc(C)c(S(=O)(=O)NCCc2c(C)[nH]c3ccccc23)cc1C [Compound T2, 4-methoxy-2,5-dimethyl-N-[2-(2-methyl-1H-indol-3-yl)ethyl]benzenesulfonamide] here?
The CC50 at 3 days was 85.4 µM.

And the IC50 (EV-A71; Table 6)?
Its IC50 is 17 µM.

And the “Selectivity Index” value (EV-A71; Table 6, CC50/IC50)?
Its value is 5.03.

What does the source list for O=C(Nc1ccc2[nH]c(-c3ccc(Br)o3)nc2c1)c1ccccc1 [Compound T4, N-[2-(5-bromo-2-furyl)-1H-benzimidazol-5-yl]benzamide]?
CC50 at 3 days (in vitro): > 200 µM; IC50 (EV-A71; Table 6): 12.2 µM; Selectivity Index (EV-A71; Table 6, CC50/IC50): >16.33

With COc1ccc(CCNC(=O)C(=O)c2c(-c3ccccc3)[nH]c3ccccc23)cc1OC [Compound T6, N-[2-(3,4-dimethoxyphenyl)ethyl]-2-oxo-2-(2-phenyl-1H-indol-3-yl)acetamide] as the molecule, how does the CC50 at 3 days (in vitro) read?
Its CC50 at 3 days is greater than 200 µM.

What about the IC50 (EV-A71; Table 6) of the same molecule?
The IC50 was 44.2 µM.

And the “Selectivity Index” value (EV-A71; Table 6, CC50/IC50)?
The value was greater than 4.52.
